The values that follow come from patent US11485728B2, “Small molecules for the treatment of autoimmune diseases and cancer” (Athos Therapeutics, Inc., priority 2020, dated 2022).

Each structure is given as a SMILES string.

Common to all, as to assay type: in vitro ADME
One data set concerns the target T1, CYP2C9 (Homo sapiens, UniProt P11712).
T1 construct: from tissue; host or cells: pooled human liver microsomes
Description: CYP-direct inhibition, CYP2C9. As to the method:
(§1) Many drugs inhibit cytochrome P450 enzymes to cause clinically significant changes in the pharmacokinetics of other drugs. In vitro cytochrome P450 inhibition, can provide crucial information in evaluating potential clinical drug-drug interactions and is useful for focusing in vivo tests to areas of concern. The cytochrome P450 inhibition assay was developed by preparing a working cocktail solution consisting of six probe substrates 10 μM ethoxy-resorufin (CYP1A2), 100 μM rosiglitazone (CYP2C8), 50 μM diclofenac (CYP2C9), 300 μM S-mephenytoin (CYP2C19), 50 μM dextromethorphan (CYP2D6), and 20 μM midazolam (CYP3A4). A mixture solution consists of 140 uL of 0.286 mg/mL of pooled human liver microsome working solution and 20 uL working solutions of test articles, standard control inhibitors, or positive control placebo and 20 uL of substrate cocktail mixture working solution was prepared. The mixture solution was pre-warm in a gentle shaking bath at 37±2° C. for 5 minutes. The enzymatic reaction started by adding 20 uL of NRS working solution to the mixture solution and incubated for 10 minutes at 37±2° C. To stop the reaction, an addition of 400 μL cold stop solution (acetonitrile containing 50 ng/mL Tolbutamide as an internal standard (I.Std.) was added to the mixture solution. The final concentration of test article, inhibitors, substrates, and cofactors are noted in Table 0.1 below. Two individual samples were prepared for each test compound. The extracted samples were vortexed and then centrifuged at 4500 rpm for 7 minutes using Eppendorf Centrifuge 5910R. 200 uL of supernatant was diluting with 200 uL of 50% Methanol into 96-DW plate for LC/MS/MS analysis
(§2) Concentration-response plots are used to determine the effects of an inhibitor on an enzymatic reaction. A typical concentration-response plot provides fractional activity (Y axis) is plotted as a function of log inhibitor concentration (X axis). The data are fitted using a standard Sigmoidal dose-response equation which is also called a […] logistic equation. The concentration of compound that results in 50% inhibition of maximal activity is termed as the IC50 (inhibitor concentration yielding 50% inhibition). IC50 value is calculated using Prism GraphPad software, version 9. […].
(§3) Cytochrome P450 inhibition of a drug is a key factor in determining pharmacokinetic drug-drug interactions. The objective of this study was to evaluate the inhibition potential of G9a inhibitors on six (6) major human cytochrome P450 enzymes, including CYP1A2, CYP2C8, CYP2C9, CYP2C19, CYP2D6, and CYP3A4. Inhibition was determined by using a substrate cocktail and analyzing the rate of specific metabolites formation. The cytochrome P450 inhibition assay was developed using a cocktail consisting of six (6) probe substrates ethoxy-resorufin (CYP1A2), rosiglitazone (CYP2C8), diclofenac (CYP2C9), S-mephenytoin (CYP2C19), dextromethorphan (CYP2D6), and midazolam (CYP3A4). The cocktail was incubated in human liver microsome with NADPH regenerating system (NRS) in a shaking bath at 37±2° C. The formation of specific metabolites was monitored by LC/MS/MS. Test compound was added to the cocktail-liver microsome mixture at varying concentrations and its effect on cytochrome P450 activity was determined by analyzing the rate of specific metabolite formation. The percent inhibition was calculated and plotted with reference to the concentration, and the IC50 value for inhibition was derived by fitting the data with a using log(inhibitor) vs. normalized response with variable slope least squares fit by Graphpad Prism® software. […].

Data set [1] is described as follows: In-vitro half-life in mouse liver microsomes. The following applies: Mouse liver microsomes 0.5 mg/mL; 1 μg/mL drug; NRS; read-out: Metabolic Half-life. The procedure: In each of the species (human, rat, mouse) of liver matrix to be tested, a working concentration of 2 μg/mL was prepared of each test article from the 0.5 mg/mL DMSO stock solution by adding 3 μL of 0.5 mg/mL test article stock solution to 747 μL of the 1 mg/mL liver matrix. Incubation was performed at 37±2° C. with gentle, continuous mixing in shaking water bath in 2.0 mL-well capacity 96-Deepwell plates (96-DWP). Samples were retrieved in duplicate at the following time points: 0, 5, 10, 15, 30 and 60 minutes. The final mixture contained 1 μg/mL of drug and 0.5 mg/mL of liver matrix. First, 50 μL of test articles in liver matrix was added to the 96-DWP and pre-warmed the mixture in the 96-DWP for 2 minutes in the 37° C. water bath. The enzymatic reaction was started by the addition of 50 μL of the corresponding 2× NADPH regenerating system (NRS) cofactor solution to all sample wells and stopped by the addition of 300 μL of stop solution (acetonitrile containing 10 ng/mL Tolbutamide as an internal standard (I.Std.). The samples were agitated for 10 minutes and then centrifuged for 20 minutes at 4500 rpm. 25 μL of supernatant was diluted with 475 μL acetonitrile containing I. Std. into a new 96-DWPs for LC-MS/MS analysis.
Half-life calculations were generated and calculated by Graphpad Prism® software. The half-life of test compound was calculated based on the first-order reaction kinetics. The data was transformed to linear regression (y=log(y) where “y” axis represents the % compound remaining at any given time with respect to time 0 minutes; “x” axis represents time in minutes) in order to calculate the half-life.
A comparison of metabolic stability in time-course incubation experiments in varying species of liver can provide information of pharmacokinetic properties of drugs attributable to species-related differences in hepatic metabolism. The results of these experiments often assist in further applications such as assessing in vitro metabolite profiling and choosing relevant species for toxicology studies based on similarities relative to the metabolic stability to the human profile. For these experiments, the test compound was tested in parallel with a positive control, Dasatinab, in an enzymatic reaction solution of each species (human and rat) of liver microsomes containing a NADPH regenerating system (NRS). The final mixture contained 1 μg/mL of drug and 0.5 mg/mL of liver matrix. Incubations were performed at 37±2° C. with gentle, continuous mixing in shaking water bath in 96-Deep well plates. The stability of the test compound is monitored using fast, specific and sensitive LC/MS/MS analysis.
(Microsomes from liver hold many membrane-bound enzymes, among them those of drug oxidation.)

For a further data set, the target named is T2, CYP2C19 (Homo sapiens, UniProt P33261).
T2 construct: from tissue; host or cells: pooled human liver microsomes
T2 sequence (P33261 whole entry): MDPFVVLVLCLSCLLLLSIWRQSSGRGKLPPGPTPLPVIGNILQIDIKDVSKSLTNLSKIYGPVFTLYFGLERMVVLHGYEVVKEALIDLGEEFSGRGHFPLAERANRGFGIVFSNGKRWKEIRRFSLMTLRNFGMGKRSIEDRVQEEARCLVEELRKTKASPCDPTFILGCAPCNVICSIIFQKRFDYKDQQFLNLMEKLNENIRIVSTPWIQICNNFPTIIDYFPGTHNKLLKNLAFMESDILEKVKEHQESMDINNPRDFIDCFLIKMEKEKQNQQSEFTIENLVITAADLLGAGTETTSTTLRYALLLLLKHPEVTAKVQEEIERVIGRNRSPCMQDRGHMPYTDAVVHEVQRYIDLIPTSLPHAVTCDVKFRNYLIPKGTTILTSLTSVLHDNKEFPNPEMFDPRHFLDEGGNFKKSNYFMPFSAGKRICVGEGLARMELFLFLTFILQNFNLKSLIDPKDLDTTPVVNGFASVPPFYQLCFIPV
Kind of data set: CYP-direct inhibition, CYP2C19. The procedure: as §1, §2, §3

T1 sequence (P11712 whole entry): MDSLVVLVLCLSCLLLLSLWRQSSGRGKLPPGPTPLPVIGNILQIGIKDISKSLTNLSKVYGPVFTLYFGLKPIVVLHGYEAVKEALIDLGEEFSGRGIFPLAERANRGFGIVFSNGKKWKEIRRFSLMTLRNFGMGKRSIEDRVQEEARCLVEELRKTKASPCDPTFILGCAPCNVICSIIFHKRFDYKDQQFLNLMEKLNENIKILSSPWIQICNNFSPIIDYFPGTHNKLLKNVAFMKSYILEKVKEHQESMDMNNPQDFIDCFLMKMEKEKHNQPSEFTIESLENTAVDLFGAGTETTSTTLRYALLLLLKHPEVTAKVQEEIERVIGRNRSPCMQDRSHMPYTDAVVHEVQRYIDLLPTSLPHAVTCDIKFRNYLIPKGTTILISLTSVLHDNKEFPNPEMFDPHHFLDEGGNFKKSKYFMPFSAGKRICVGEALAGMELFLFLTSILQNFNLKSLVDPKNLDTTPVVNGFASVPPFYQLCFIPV

Turning to `COc1cc2c(NC3CCS(=O)(=O)CC3)nc(N3CCC(F)(F)CC3)nc2cc1OCCCN1CCCC1` [Compound 1, 4-((2-(4,4-difluoropiperidin-1-yl)-6-methoxy-7-(3-(pyrrolidin-1-yl)propoxy)quinazolin-4-yl)amino)tetrahydro-2H-thiopyran 1,1-dioxide], the half-inhibitory concentration (IC50) on CYP2C9 and at CYP2C19 was more than 100 µM each time. In addition, the half-life at 1 μg/mL in data set [1] was more than 1 h.

Turning to `COc1cc2c(NC3CCOCC3)nc(N3CCC(F)(F)CC3)nc2cc1OCCCN1CCCC1` [Compound 2, 2-(4,4-difluoropiperidin-1-yl)-6-methoxy-7-(3-(pyrrolidin-1-yl)propoxy)-N-(tetrahydro-2H-pyran-4-yl)quinazolin-4-amine], the IC50 against CYP2C9 and on CYP2C19 was more than 100 µM each time. Also, in data set [1], the half-life at 1 μg/mL is more than 1 h.

As to `COc1cc2c(NCC3CCN(C)CC3)nc(N3CCC(F)(F)CC3)nc2cc1OCCCN1CCCC1` [Compound 5, 2-(4,4-difluoropiperidin-1-yl)-6-methoxy-N-((1-methylpiperidin-4-yl)methyl)-7-(3-(pyrrolidin-1-yl)propoxy)quinazolin-4-amine], the half-maximal inhibitory concentration (IC50) on CYP2C9 and on CYP2C19 was more than 100 µM each time. For the same molecule, the half-life at 1 μg/mL in data set [1] was more than 1 h.

For the molecule `COc1cc2c(NC3CCNCC3)nc(N3CCC(F)(F)CC3)nc2cc1OCCCN1CCCC1` [Compound 8, 2-(4,4-difluoropiperidin-1-yl)-6-methoxy-N-(piperidin-4-yl)-7-(3-(pyrrolidin-1-yl)propoxy)quinazolin-4-amine], the IC50 on CYP2C9 and against CYP2C19 was more than 100 µM throughout. In addition, in data set [1], the half-life at 1 μg/mL was more than 1 h.

Take `COc1cc2c(NCC(N)=O)nc(N3CCC(F)(F)CC3)nc2cc1OCCCN1CCCC1` [Compound 9, 2-((2-(4,4-difluoropiperidin-1-yl)-6-methoxy-7-(3-(pyrrolidin-1-yl)propoxy)quinazolin-4-yl)amino)acetamide]: the half-inhibitory concentration (IC50) on CYP2C9 and against CYP2C19 was more than 100 µM in each case. In addition, the half-life at 1 μg/mL in data set [1] is more than 1 h.

Take `COc1cc2c(NC3COC3)nc(N3CCC(F)(F)CC3)nc2cc1OCCCN1CCCC1` [Compound 11, 2-(4,4-difluoropiperidin-1-yl)-6-methoxy-N-(oxetan-3-yl)-7-(3-(pyrrolidin-1-yl)propoxy)quinazolin-4-amine]: the IC50 at CYP2C9 and against CYP2C19 was more than 100 µM throughout. The half-life at 1 μg/mL in data set [1] was more than 1 h.

As for `COc1cc2c(NC3CCS(=O)(=O)CC3)nc(N3CCCC3)nc2cc1OCCCN1CCCC1` [Compound 80, 4-((6-methoxy-2-(pyrrolidin-1-yl)-7-(3-(pyrrolidin-1-yl)propoxy)quinazolin-4-yl)amino)tetrahydro-2H-thiopyran 1,1-dioxide], the IC50 at CYP2C9 and against CYP2C19 was more than 100 µM in each case. Besides, in data set [1], the half-life at 1 μg/mL is more than 1 h.

Turning to `COc1cc2c(NC3CCS(=O)(=O)CC3)nc(N3CCOCC3)nc2cc1OCCCN1CCCC1` [Compound 102, 4-((6-methoxy-2-morpholino-7-(3-(pyrrolidin-1-yl)propoxy)quinazolin-4-yl)amino)tetrahydro-2H-thiopyran 1,1-dioxide], the IC50 at CYP2C9 and on CYP2C19 was more than 100 µM each time. Moreover, the half-life at 1 μg/mL in data set [1] is more than 1 h.

`COc1cc2c(NC3CCS(=O)(=O)CC3)nc(N3CCS(=O)(=O)CC3)nc2cc1OCCCN1CCCC1` [Compound 103, 4-(4-((1,1-dioxidotetrahydro-2H-thiopyran-4-yl)amino)-6-methoxy-7-(3-(pyrrolidin-1-yl)propoxy)quinazolin-2-yl)thiomorpholine 1,1-dioxide]: the half-maximal inhibitory concentration (IC50) against CYP2C9 and against CYP2C19 was more than 100 µM throughout. Besides, in data set [1], the half-life at 1 μg/mL is more than 1 h.

Consider `COc1cc2c(NC3CCS(=O)(=O)CC3)nc(N3CCN(C)CC3)nc2cc1OCCCN1CCCC1` [Compound 109, 4-((6-methoxy-2-(4-methylpiperazin-1-yl)-7-(3-(pyrrolidin-1-yl)propoxy)quinazolin-4-yl)amino)tetrahydro-2H-thiopyran 1,1-dioxide], for which the IC50 against CYP2C9 and against CYP2C19 was more than 100 µM in each case. Besides, the half-life at 1 μg/mL in data set [1] was more than 1 h.

As to `COc1cc2c(NC3CCS(=O)(=O)CC3)nc(N3CCCN(C)CC3)nc2cc1OCCCN1CCCC1` [Compound 110, 4-((6-methoxy-2-(4-methyl-1,4-diazepan-1-yl)-7-(3-(pyrrolidin-1-yl)propoxy)quinazolin-4-yl)amino)tetrahydro-2H-thiopyran 1,1-dioxide], the half-inhibitory concentration (IC50) on CYP2C9 and against CYP2C19 was more than 100 µM in each case. Also, the half-life at 1 μg/mL in data set [1] was more than 1 h.

For `COc1cc2c(Nc3ccncc3)nc(-n3ccnc3)nc2cc1OCCCN1CCCC1` [Compound 130, 2-(1H-imidazol-1-yl)-6-methoxy-N-(pyridin-4-yl)-7-(3-(pyrrolidin-1-yl)propoxy)quinazolin-4-amine], the values for the IC50 at CYP2C9 and at CYP2C19 were 65.5 µM and 75.7 µM, respectively. In data set [1], the half-life at 1 μg/mL worked out at 0.535 h.

For the molecule `COc1cc2c(NC3CCN(C(C)C)CC3)nc(-n3cccn3)nc2cc1OCCCN1CCCC1` [Compound 157, N-(1-isopropylpiperidin-4-yl)-6-methoxy-2-(1H-pyrazol-1-yl)-7-(3-(pyrrolidin-1-yl)propoxy)quinazolin-4-amine], the IC50 against CYP2C9 and against CYP2C19 was more than 100 µM in each case. For the same molecule, the half-life at 1 μg/mL in data set [1] was more than 1 h.

Regarding `COc1cc2c(N[C@H]3CCCNC3)nc(N3CCCC3)nc2cc1OCCCN1CCCC1` [Compound 158, (S)-6-methoxy-N-(piperidin-3-yl)-2-(pyrrolidin-1-yl)-7-(3-(pyrrolidin-1-yl)propoxy)quinazolin-4-amine], the IC50 against CYP2C9 and on CYP2C19 was more than 100 µM throughout. For the same molecule, the half-life at 1 μg/mL in data set [1] was found to be 0.637 h.

On to `COc1cc2c(N[C@@H]3CCCNC3)nc(N3CCCC3)nc2cc1OCCCN1CCCC1` [Compound 159, (R)-6-methoxy-N-(piperidin-3-yl)-2-(pyrrolidin-1-yl)-7-(3-(pyrrolidin-1-yl)propoxy)quinazolin-4-amine], for which the half-inhibitory concentration (IC50) against CYP2C9 and at CYP2C19 was more than 100 µM each time. In data set [1], the half-life at 1 μg/mL came to 0.655 h.

Usually IC50 stands for the concentration needed to halve the response being measured. For orientation: half-life means the time needed for the level to fall by half in the phase considered.
